# Patent US20110190503A1, “Thiazolopyridin-2-yloxy-phenyl and thiazolopyrazin-2-yloxy-phenyl amines as modulators of leukotriene A4 hydrolase” (Janssen Pharmaceutical NV, priority 2008, published 2011)
# Key:
# [1] = target: T1, recombinant human LTA4 hydrolase (rhLTA4H) (Homo sapiens, UniProt P09960); experiment: Recombinant human LTA4 hydrolase assay for LTA4 hydrolase inhibitor activity; format: biochemical; conditions: rhLTA4H, LTA4 substrate, LTB4 by immunoassay; single determination or average; read-out: IC50
# T1 construct: made in house; host or cells: Spodoptera frugiperda (Sf-9) cells, recombinant baculovirus (pFastBac1)
# T1 sequence (P09960 1-611): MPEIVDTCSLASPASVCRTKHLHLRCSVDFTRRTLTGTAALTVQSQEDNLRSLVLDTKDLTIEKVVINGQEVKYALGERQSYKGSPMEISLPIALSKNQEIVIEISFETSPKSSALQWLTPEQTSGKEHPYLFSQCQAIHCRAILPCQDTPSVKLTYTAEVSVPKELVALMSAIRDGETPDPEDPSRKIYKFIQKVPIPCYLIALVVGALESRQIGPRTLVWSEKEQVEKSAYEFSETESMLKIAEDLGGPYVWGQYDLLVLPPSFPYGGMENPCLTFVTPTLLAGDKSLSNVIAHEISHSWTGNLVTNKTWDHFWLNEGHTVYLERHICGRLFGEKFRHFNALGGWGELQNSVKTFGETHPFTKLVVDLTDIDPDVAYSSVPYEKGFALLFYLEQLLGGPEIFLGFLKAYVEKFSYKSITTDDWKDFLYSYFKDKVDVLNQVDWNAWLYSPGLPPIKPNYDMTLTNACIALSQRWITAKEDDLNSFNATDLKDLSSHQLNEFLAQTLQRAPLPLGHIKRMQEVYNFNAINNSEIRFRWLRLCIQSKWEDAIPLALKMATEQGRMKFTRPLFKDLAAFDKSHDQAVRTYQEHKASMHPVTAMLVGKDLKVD
# How it was run: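 LTB4 formed from LTA4 substrate (free acid from the methyl ester) was quantified by enzyme immunoassay after a 30 min rt reaction. Enzyme was 10 ng Sf-9-expressed human LTA4 hydrolase, pre-incubated 10 min with compound.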
# [2] = system: LTB4 production by calcium ionophore-stimulated murine blood; experiment: LTB4 production by calcium ionophore-stimulated murine blood for LTA4H inhibitor activity; format: cell-based, CD-1 mice; conditions: Mus musculus; murine blood diluted 1 in 15, calcium ionophore A23187, LTB4 by immunoassay; read-out: IC50
# How it was run: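 LTB4 quantified by EIA in supernatants after murine (CD-1) heparinized whole blood was exposed to compound for 15 min, then to 7 μg/mL (final) A23187 for 30 min, all at 37° C. Reported values: single runs or means; three or more runs include SD.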
# [3] = system: ex vivo stimulated LTB4 production; experiment: Murine arachidonic acid-induced inflammation model: ex vivo stimulated LTB4 production (% Inh. LTB4); conditions: Mus musculus; female Balb/c mice, 30 mg/kg oral gavage; blood taken 3 h after arachidonic acid, ex vivo A23187 stimulation; number of determinations in parentheses
# Method: (§1) Assay 4: Murine Arachidonic Acid-Induced Inflammation Model
# (§2) LTA4H inhibitor compounds of the present invention were dissolved in 20% cyclodextran/H2O at a concentration of 3 mg/mL. The solutions were administered by oral gavage to female Balb/c mice weighing approximately 20 grams each (0.2 mL per mouse, 30 mg of LTA4H inhibitor compound per kg). Sixty minutes after being administered an LTA4 inhibitor, each mouse received topical application of 20 μL of arachidonic acid (100 mg/mL in acetone) to the left ear and 20 μL of acetone only to the right ear. After 3 h, the mice were sacrificed, blood was withdrawn in heparinized syringes, and 8 mm ear biopsies were taken. Ear biopsies were weighed to determine edema and then frozen at −80° C. until needed for determination of neutrophil influx.
# One hundred-microliter aliquots of heparinized blood were added to wells of a microtiter plate, along with equal volumes of RPMI-1640 medium, and calcium ionophore A23187 was added to each sample well (final concentration=[…]). The microtiter plate contents were incubated for 30 min at 37° C. in a humidified incubator. The reaction was terminated by centrifugation (833×g, 10 min at 4° C.). Supernatants were analyzed for LTB4 by a commercially available enzyme-linked immunoassay (Cayman Chemical Co.) in accordance with the manufacturer's instructions. The percent inhibition of ex vivo stimulated LTB4 production (% Inh. LTB4) was determined by comparison to animals treated identically except that the solution administered by oral gavage was devoid of inhibitor compound.
# (§3) The number of determinations is indicated in parentheses following each value
# neutrophil influx = experiment: Murine arachidonic acid-induced inflammation model: neutrophil influx in ear, myeloperoxidase activity (% Inh. MPO); format: in vivo; conditions: Mus musculus, female Balb/c mice, 30 mg/kg oral gavage, ear biopsy 3 h after topical arachidonic acid, number of determinations in parentheses
# Method: as §1, §2
# Neutrophil influx was quantified by measuring the activity of myeloperoxidase (MPO), a neutrophil-specific enzyme. The ear biopsies were homogenized in 0.5 mL extraction buffer (0.3 M sucrose, 0.22% (w/v) hexadecyl trimethyl ammonium bromide (CTAB), and 2.5 mM citrate prepared from 0.5 M citrate stock solution (pH 5.0)), in a Fast-Prep-24 (MP™) (40 seconds at 6 mps). Debris was removed by centrifugation at 14000×g for 10 min. Aliquots of 10 μL of the resulting supernatant were added to wells of a microtiter plate, along with 90-μL aliquots of dilution buffer (10 mM citrate, 0.22% CTAB), followed by addition of 20 μL TMB liquid substrate system (Sigma Chemical Co.) to each sample well. The microtiter plate contents were held at room temperature until the sample with the highest concentration of MPO reached an absorbance value of 0.4 at 650 nm. The reaction was stopped by addition of 50 μL 1 M H2SO4 to each sample well, and the myeloperoxidase activity in each sample was determined from the absorbance at 405 nm. The background value from the right ear, treated only with acetone, was subtracted from that for the left ear, treated with arachidonic acid in acetone, for each animal. The percent inhibition of neutrophil influx (% Inh. MPO) by compounds of the invention was determined by comparison to animals treated identically, except that the solution administered by oral gavage was devoid of inhibitor compound.
# as §3
IC50 [1],IC50 [2],Compound,inhibition at 30 mg/kg [3],inhibition in vivo at 30 mg/kg (neutrophil influx)
5 nM,19 nM,"c1cnc2nc(Oc3ccc(OCCN4CCCCC4)cc3)sc2c1 [Example 10, 2-[4-(2-Piperidin-1-ylethoxy)phenoxy][1,3]thiazolo[4,5-b]pyridine]",68%,62.2%
29 ± 5.2 nM,310 nM,"NC(=O)N1C[C@@H]2C[C@H]1CN2CCOc1ccc(Oc2nc3ncccc3s2)cc1 [Example 15, (1S,4S)-5-{2-[4-([1,3]Thiazolo[4,5-b]pyridin-2-yloxy)phenoxy]ethyl}-2,5-diazabicyclo[2.2.1]heptane-2-carboxamide]",61.9%,47.7%
5.5 nM,32 ± 24 nM,"CC(=O)N1CC2CN(CCOc3ccc(Oc4nc5ncccc5s4)cc3)CC2C1 (stereo not shown) [Example 18, 2-{4-[2-(5-Acetylhexahydropyrrolo[3,4-c]pyrrol-2(1H)-yl)ethoxy]phenoxy}[1,3]thiazolo[4,5-b]pyridine]",80.9%,86.1%
13 nM,130 nM,"O=C1CCCN1C1CCN(CCc2ccc(Oc3nc4ncccc4s3)cc2)CC1 [Example 46, 1-(1-{2-[4-([1,3]Thiazolo[4,5-b]pyridin-2-yloxy)phenyl]ethyl}piperidin-4-yl)pyrrolidin-2-one]",86.5%,75.3%
32 nM,91 nM,"NC(=O)N1C[C@H]2C[C@@H]1CN2CCOc1ccc(Oc2nc3ncccc3s2)cc1 [Example 268, (1R,4R)-5-{2-[4-([1,3]Thiazolo[4,5-b]pyridin-2-yloxy)phenoxy]ethyl}-2,5-diazabicyclo[2.2.1]heptane-2-carboxamide]",–,–
37 nM,97 nM,"COCCCN(CCOc1ccc(Oc2nc3ncccc3s2)cc1)C1CC1 [Example 272, N-(3-Methoxypropyl)-N-{2-[4-([1,3]thiazolo[4,5-b]pyridin-2-yloxy)phenoxy]ethyl}cyclopropanamine]",–,–
47 nM,3300 nM,"O=C(O)CCNCc1ccc(Oc2nc3ncccc3s2)cc1 [Example 275, N-[4-([1,3]Thiazolo[4,5-b]pyridin-2-yloxy)benzyl]-beta-alanine]",–,–
7 nM,900 nM,"NC(=O)N1CC2CN(Cc3ccc(Oc4nc5ncccc5s4)cc3)CC2C1 (stereo not shown) [Example 277, 5-[4-([1,3]Thiazolo[4,5-b]pyridin-2-yloxy)benzyl]hexahydropyrrolo[3,4-c]pyrrole-2(1H)-carboxamide]",–,–
–,68 nM,"NC(=O)C1CCN(Cc2ccc(Oc3nc4ncc(F)cc4s3)cc2)CC1 [Example 283, 1-{4-[(6-Fluoro[1,3]thiazolo[4,5-b]pyridin-2-yl)oxy]benzyl}piperidine-4-carboxamide]",78.2%,88.3%
89 nM,640 nM,"NC(=O)C1CCN(Cc2ccc(Oc3nc4ncc(Cl)cc4s3)cc2)CC1 [Example 284, 1-{4-[(6-Chloro[1,3]thiazolo[4,5-b]pyridin-2-yl)oxy]benzyl}piperidine-4-carboxamide]",–,–
82 nM,280 nM,"c1ccc(SC2CCN(CCOc3ccc(Oc4nc5ncccc5s4)cc3)CC2)nc1 [Example 291, 2-(4-{2-[4-(Pyridin-2-ylsulfanyl)piperidin-1-yl]ethoxy}phenoxy)[1,3]thiazolo[4,5-b]pyridine]",–,–
23 nM,79 nM,"CC(=O)N1CC2CC(CN(Cc3ccc(Oc4nc5ncccc5s4)cc3)C2)C1 [Example 294, meso-2-(4-{[7-Acetyl-3,7-diazabicyclo[3.3.1]non-3-yl]methyl}phenoxy)[1,3]thiazolo[4,5-b]pyridine]",–,–
6 nM,15 nM,"CC(=O)N1CCC2(CCN(Cc3ccc(Oc4nc5ncccc5s4)cc3)CC2)CC1 [Example 295, 3-Acetyl-9-[4-([1,3]thiazolo[4,5-b]pyridin-2-yloxy)benzyl]-3,9-diazaspiro[5.5]undecane]",–,–

Compound,IC50 [1],IC50 [2],inhibition at 30 mg/kg [3],inhibition in vivo at 30 mg/kg (neutrophil influx)
"CC(=O)N[C@H]1C[C@H]2CC[C@@H](C1)N2CCOc1ccc(Oc2nc3ncccc3s2)cc1 [Example 16, meso-N-[(3-endo)-8-{2-[4-([1,3]Thiazolo[4,5-b]pyridin-2-yloxy)phenoxy]ethyl}-8-azabicyclo[3.2.1]oct-3-yl]acetamide]",3 nM,26 nM,84.6%,73.6%
"CC(=O)N[C@@H]1C[C@H]2CC[C@@H](C1)N2CCOc1ccc(Oc2nc3ncccc3s2)cc1 [Example 17, meso-N-[(3-exo)-8-{2-[4-([1,3]Thiazolo[4,5-b]pyridin-2-yloxy)phenoxy]ethyl}-8-azabicyclo[3.2.1]oct-3-yl]acetamide]",2 nM,25 nM,81.5%,63.4%
"OC1(c2ccccc2)CCN(CCOc2ccc(Oc3nc4ncccc4s3)cc2)CC1 [Example 27, 4-Phenyl-1-{2-[4-([1,3]thiazolo[4,5-b]pyridin-2-yloxy)phenoxy]ethyl}piperidin-4-ol]",32 nM,160 nM,78.2%,83.7%
"CC(=O)N[C@@H]1C[C@H]2CC[C@@H](C1)N2CCc1ccc(Oc2nc3ncccc3s2)cc1 [Example 49, meso-N-[(3-exo)-8-{2-[4-([1,3]Thiazolo[4,5-b]pyridin-2-yloxy)phenyl]ethyl}-8-azabicyclo[3.2.1]oct-3-yl]acetamide]",0.7 nM,76 nM,83%,66%
"NC(=O)N[C@H]1C[C@H]2CC[C@@H](C1)N2Cc1ccc(Oc2nc3ncccc3s2)cc1 [Example 278, meso-1-{(3-endo)-8-[4-([1,3]Thiazolo[4,5-b]pyridin-2-yloxy)benzyl]-8-azabicyclo[3.2.1]oct-3-yl}urea]",2 nM,280 nM,–,–
"CC(=O)N[C@H]1C[C@H]2CC[C@@H](C1)N2Cc1ccc(Oc2nc3nccc(C)c3s2)cc1 [Example 289, meso-endo-N-[8-{4-[(7-Methyl[1,3]thiazolo[4,5-b]pyridin-2-yl)oxy]benzyl}-8-azabicyclo[3.2.1]oct-3-yl]acetamide]",9 nM,542 nM,–,–
